Results published in patent US8796302B2 (priority 2004, dated 2014).

Experiments:
[1] = system: dopaminergic neurons in rat primary mesencephalic neuron-glia cultures; experiment: [3H]DA uptake in LPS-treated mesencephalic neuron-glia cultures; format: cell-based; conditions: LPS 5 ng/ml, 7 days, LPS alone 40.1 ± 3.2; for DA uptake, LPS + Peptide 10^−13: peptide 10^−13, 30 min pretreatment; for DA uptake, LPS + Peptide 10^−14: peptide 10^−14, 30 min pretreatment; for DA uptake, LPS + Peptide 10^−15: peptide 10^−15, 30 min pretreatment
Procedure: Neuron-glia cultures were prepared from the ventral mesencephalic tissues of embryonic day 13-14 Fisher F344 rats or day 12-13 wild-type C57BL/6J (gp91phox^+/+) mice. Dissociated cells were seeded at 1×10^5/well and 5×10^5/well to poly-D-lysine-coated 96-well and 24-well plates, respectively. Cells were maintained at about 37° C. in a humidified atmosphere of 5% CO2 and 95% air, in minimal essential medium (MEM) containing 10% fetal bovine serum (FBS), 10% horse serum (HS), 1 gm/l glucose, 2 mM L-glutamine, 1 mM sodium pyruvate, 100 μM nonessential amino acids, 50 U/ml penicillin, and 50 μg/ml streptomycin. Seven-day-old cultures were used for treatment.
Dextromethorphan (obtained from Sigma-Aldrich (St. Louis, Mo.) as dextromethorphan hydrobromide) was freshly prepared as a stock solution (1 mM) in ddH2O and sterile-filtered right before use. For treatment of the cultures, the DM was serially diluted (10×) with fresh culture medium containing 2% of fetal bovine and horse serum. The neuron-glia cultures were pretreated with 10^−5-10^−17M DM 30 minutes prior to treatment with 10 ng/ml of LPS.
Seven days after treatment, the degeneration of dopaminergic neurons was assessed by [^3H]-dopamine (DA) uptake assays. The [^3H]-DA uptake assays were performed as follows. Cultures were washed twice with warm Krebs-Ringer buffer (KRB, 16 mM sodium phosphate, 119 mM NaCl, 4.7 mM KCl, 1.8 mM CaCl2, 1.2 mM MgSO4, 1.3 mM EDTA, and 5.6 mM glucose; pH7.4) and then incubated for about 20 minutes at about 37° C. with 1 μM [^3H]-DA in KRB in order to allow for the uptake of DA. Afterwards, the cultures were washed (three times) with ice-cold KRB and the cells were collected in 1 N NaOH. Radioactivity was determined by liquid scintillation counting.
This example tests whether or not post-treatment with DM is still neuroprotective in LPS-induced neurotoxicity. Neuron-glia co-cultures as prepared in Example 1 were first treated with LPS (20 ng/ml) for twelve hours, and then LPS was removed by removing the media from the cultures and washing twice with PBS. Different concentrations of DM (10^−5, 10^−10, and 10^−14 M) were then added to the cultures and incubation was continued for another 6 or 7 days. The DA uptake and the superoxide production were measured as in Example 1 and 5.
Neuron-glia cell cultures were prepared as in Example 1, and pretreated with the various peptide fragments of Table 1 (peptide fragments were obtained from BACHEM) for 30 minutes followed by addition of 5 ng/ml of LPS. DA neurotoxicity was measured as an Example 1 at 7 days post treatment.
DA neurotoxicity was measured at 7 days post treatment as in Example 1. Dopaminergic neuronal death was determined at 7 days post treatment using immunocytochemical staining as in Example 2.
Neuron-glia cultures were prepared from the ventral mesencephalic tissues of embryonic day 13-14 rats. Dissociated cells were seeded at 1×10^5/well and 5×10^5/well to poly-D-lysine-coated 96-well and 24-well plates, respectively.

[2] = system: dopaminergic neurons in rat primary mesencephalic neuron-glia cultures; experiment: DA uptake / TH-IR count in neuron-glia cultures without toxin (spontaneous DA neuronal death, neurotrophic effect); format: cell-based; conditions: sodium butyrate, indicated concentrations, 7 days
Procedure: In Example 23, [^3H]DA uptake assay and immunohistochemical analysis for TH-IR neurons were used to assess the viability of DA neurons in rat primary mesencephalic neuron-glia cultures in which approximately 1% of the neurons are dopaminergic. [^3H]DA uptake assays were performed as described in Example 1.
Rat primary mesencephalic neuron-glia cultures were prepared from the ventral mesencephalic tissues of embryonic day 13-14 Fisher 344 rats. Dissociated cells were seeded at a density of 5×10^5/well to poly-D-lysine-precoated 24-well plates. Cells were maintained at 37° C. in a humidified atmosphere of 5% CO2 and 95% air, in minimal essential medium containing 10% fetal bovine serum (FBS), 10% horse serum, 1 gm/l glucose, 2 mM L-glutamine, 1 mM sodium pyruvate, 100 μM non-essential amino acids, 50 U/ml penicillin, and 50 μg/ml streptomycin. Unless otherwise indicated, seven-day-old cultures were used for treatment.
Seven days after seeding, each well was treated with indicated concentration of VPA or its vehicle. Seven days after treatment, the viability of dopaminergic neurons was assessed by [^3H]DA uptake assays. Quantified results are expressed as mean±SEM of percentage of vehicle-treated cultures from three experiments performed in duplicate. *, p<0.05 compared with the corresponding vehicle-treated control cultures.
Next, the rat primary mesencephalic neuron-glia cultures were treated with 0.6 mM VPA for various times to determine the treatment time-dependency. Rat primary mesencephalic neuron-glia cultures in a 24-well plate were treated with 0.6 mM VPA or its vehicle for indicated time 7 days after seeding. The viability of dopaminergic neurons was assessed by [^3H]DA uptake assays, shown in FIG. 37 or counting of TH-IR neurons, shown in FIG. 38. Quantified results are expressed as mean±SEM of percentage of vehicle-treated control cultures from three experiments performed in duplicate. *, p<0.05 compared with the corresponding vehicle-treated control cultures. […] VPA time-dependently induces survival-promoting effects against spontaneous DA neuronal death in rat primary mesencephalic neuron-glia cultures.
Rat primary mesencephalic neuron-glia cultures seeded in a 24-well culture plate at density of 5×10^5 per well were treated with indicated concentrations of sodium butyrate or its vehicle 7 days after seeding. The viability of dopaminergic neurons was assessed by DA uptake assays 7 days after sodium butyrate addition.
Mesencephalic neuron-glia cultures, prepared as described above, were pretreated with vehicle or 3-HM (1-5 μM) before the treatment of LPS (10 ng/ml). Seven days later, the degeneration of dopaminergic neurons was determined by the functional assay of [^3H]DA uptake and by the morphometric measurement of dopaminergic neurons following immunostaining with an anti-TH antibody. [^3H]DA and immunostaining are performed as described above.

[3] = system: dopaminergic neurons in mesencephalic neuron-enriched cultures; experiment: [3H]DA uptake in neuron-enriched cultures (direct, conditioned media, reconstituted); format: cell-based, rat; conditions: neuron-enriched cultures, 7 days; drug 0.6 mM or conditioned medium
Procedure: Mixed-glia cultures were first prepared from brains of 1-day-old Fisher 344 rat pups, as described previously (Liu, et al. 2001). Mechanically dissociated brain cells (5×10^7) were seeded onto 150 cm^2 culture flasks in Dulbecco's modified Eagle's medium containing 10% heat-inactivated FBS, 2 mM L-glutamine, 1 mM sodium pyruvate, 100 μM non-essential amino acids, 50 U/ml penicillin, and 50 μg/ml streptomycin. The cultures were maintained at 37° C. in a humidified atmosphere of 5% CO2 and 95% air, and medium was replenished 4 days after the initial seeding. Upon reaching confluence (usually 12-14 days later), microglia were detached from astroglia by shaking the flasks for 5 hours at 180 rpm. Astroglia were then detached with trypsin-EDTA and seeded in the same culture medium. After five or more consecutive passages, cells were seeded onto 24-well plates (10^5/well) for experiments. Immunocytochemical staining of the astroglia enriched cultures with either anti-GFAP or anti-OX-42 antibody indicated astroglial purity of greater than 98% and less than 2% of microglia contamination.
Conditioned medium derived from rat primary astroglial cultures treated with vehicle (ACM) or 0.6 mM VPA (ACM-VPA) were harvested after 12, 24 and 48 hours of incubation. Midbrain neuron-enriched cultures seeded in 24-well plates at a density of 5×10^5 cells/well were treated with vehicle, VPA, ACM or ACM-VPA for 7 days. Neurotrophic effect was quantified by [^3H]DA uptake assay.
Rat mesencephalic neuron-enriched cultures are prepared from dissociated ventral mesencephalic cells from embryonic day 13-14 Fisher 344 rats were seeded first at a density of 5×10^5/well to poly-D-lysine-precoated 24-well culture plates. […] Three days later, the culture medium was replaced with the maintenance medium. Routinely, the seven-day-old neuron-enriched cultures were used for treatment. […] Of the Neu-N immunoractive neurons, 2.7-3.9% was TH-IR neurons.
To explore whether astroglial cells are also the main target of sodium butyrate-induced neurotrophic effect, we prepared media conditioned by incubation of astroglial cultures in the absence or presence 0.6 mM sodium butyrate. Conditioned medium derived from rat primary astroglial cultures treated with vehicle (ACM) or 0.6 mM sodium butyrate (ACM-Sodium butyrate) were harvested after 48 hours of incubation. Midbrain neuron-enriched cultures seeded in 24-well plates at a density of 5×10^5 cells/well were treated with vehicle, sodium butyrate, ACM or ACM-Sodium butyrate for 7 days. Seven days after treatment, neurotrophic effect for dopaminergic neurons was assessed by [^3H]DA uptake assays.
Various concentrations of 3-HM (0.1-5 μM) or vehicle were added to the following different cell cultures: neuron-enriched cultures (A); reconstituted cultures by adding 10% and 20% (5×10^4/well and 1×10^5/well) of microglia to the neuron-enriched cultures (B); reconstituted cultures by adding 40% and 50% (2×10^5/well and 2.5×10^5/well) of astroglia to the neuron-enriched cultures (C). Cultures are prepared as described in Example 25. The [^3H]DA uptake measurements were performed […] after treatment. Results were expressed as a percentage of the vehicle-treated control cultures and were the mean±SE from five (A) and four (B,C) independent experiments in triplicate. *P<0.05 and **P, 0.001 compared with the vehicle-treated control cultures. #P<0.05 compared with the augmented cultures with 40% astroglia. N, neuron-enriched cultures; N+10% (20%) MG: 10% (20%) of microglia were added back to the neuron-enriched cultures; N+40% (50%) AS: 40% (50%) of astroglia were added back to the neuron-enriched cultures.
To confirm the possible role of astroglia in the neurotrophic effect of 3-HM, conditioned media from astroglia-enriched cultures (prepared as described above) treated with either 3-HM (1-5 μM) or vehicle for 24 hours were prepared. […]

Molecule	DA uptake, LPS + Peptide 10^−13 [1]	DA uptake, LPS + Peptide 10^−14 [1]	DA uptake, LPS + Peptide 10^−15 [1]	neurotrophic effect (DA uptake) in neuron-glia culture [2]	increase in DA uptake [3]
Tyr-Gly-Gly-Phe-Leu-Arg-Arg-Ile-Arg-Pro-Lys-Leu-Lys-Trp-Asp-Asn-Gln (YGGFLRRIRPKLKWDNQ; listed as Homo sapiens) [DynA 1-17]	52.1 ± 6.2% of the control cultures	58.0 ± 6.5% of the control cultures	51.0 ± 9.4% of the control cultures	–	–
DynA 2-17: peptide fragment of Dynorphin A (YGGFLRRIRPKLKWDNQ), residues 2-17	44.3 ± 8.2% of the control cultures	62.7 ± 8.0% of the control cultures	50.2 ± 6.9% of the control cultures	–	–
CCCC(=O)[O-].[Na+] [sodium butyrate, Sodium Butyrate]	–	–	–	pronounced neurotrophic effect	less than 2 fold
